Experimental data as given in US6914045B2, “Glycopeptide antibiotics” (Wyeth Holdings Corporation, priority 2001, dated 2005).
Values after ≈ are worked out from the molar mass of the structure shown. One block for each compound: values may come before it.

Key:
Assay in all cases: in vitro antibacterial evaluation, MIC by broth dilution
Format in all cases: cell-based
[1] = tested on: Enterococcus sp.
Method in brief: (§1)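 Broth dilution per NCCLS standard M7-A2 in Muller-Hinton II […], with an inoculum of 5×10^5 CFU/mL and antibiotic spanning 64-0.06 μg/mL. The MIC is the lowest concentration that inhibits growth of the organism.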

[2] = tested on: Staphylococcus sp.; settings: broth dilution, 18 hours at 35° C.; for MIC Staphylococcus aureus (ATCC 29213): strain ATCC 29213; for MIC Staphylococcus aureus (GC 1131): strain GC 1131; for MIC Staphylococcus aureus (GC 3051): strain GC 3051; for MIC Staphylococcus aureus (GC 3053): strain GC 3053; for MIC Staphylococcus aureus (GC 4541): strain GC 4541; for MIC Staphylococcus aureus (GC 4542): strain GC 4542; for MIC Staphylococcus aureus (GC 4544): strain GC 4544; for MIC Staphylococcus aureus (GC 4545): strain GC 4545
Method in brief: as §1

[3] = tested on: Streptococcus sp.
Method in brief: as §1

[4] = tested on: Escherichia coli; settings: 18 hours at 35° C.
Method in brief: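 Broth dilution in Muller-Hinton II medium per NCCLS standard M7-A2, with an inoculum of 5×10^5 CFU/mL and antibiotic tested over 64-0.06 μg/mL. MIC was taken as the lowest concentration inhibiting visible growth.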

[5] = broth dilution, 18 hours at 35° C.

MIC Enterococcus avium (GC 4558) ([1]; Enterococcus avium (GC 4558); broth dilution, 18 hours at 35° C.): 2 µg/mL (≈ 1.31 µM)
MIC Enterococcus faecalis (ATCC 29212) ([1]; Enterococcus faecalis (ATCC 29212); broth dilution, 18 hours at 35° C.): 4 µg/mL (≈ 2.62 µM)
MIC Enterococcus faecalis (GC 4552) ([1]; Enterococcus faecalis (GC 4552); broth dilution, 18 hours at 35° C.): 4 µg/mL (≈ 2.62 µM)
MIC Enterococcus faecalis (GC 4553) ([1]; Enterococcus faecalis (GC 4553); broth dilution, 18 hours at 35° C.): 2 µg/mL (≈ 1.31 µM)
MIC Enterococcus faecalis (GC 4554) ([1]; Enterococcus faecalis (GC 4554); broth dilution, 18 hours at 35° C.): 4 µg/mL (≈ 2.62 µM)
MIC Enterococcus faecalis (GC 6189) ([1]; Enterococcus faecalis (GC 6189); broth dilution, 18 hours at 35° C.): 4 µg/mL (≈ 2.62 µM)
MIC Enterococcus faecium (GC 2243) ([1]; Enterococcus faecium (GC 2243); broth dilution, 18 hours at 35° C.): 2 µg/mL (≈ 1.31 µM)
MIC Enterococcus faecium (GC 4556) ([1]; Enterococcus faecium (GC 4556); broth dilution, 18 hours at 35° C.): 4 µg/mL (≈ 2.62 µM)
MIC Enterococcus faecium (GC 4557) ([1]; Enterococcus faecium (GC 4557); broth dilution, 18 hours at 35° C.): 1 µg/mL (≈ 0.655 µM)
MIC Enterococcus avium (GC 4558) [1, 5]: 2 µg/mL (≈ 1.31 µM)
MIC Enterococcus faecalis (ATCC 29212) [1, 5]: 4 µg/mL (≈ 2.62 µM)
MIC Enterococcus faecalis (GC 2242) [1, 5]: 4 µg/mL (≈ 2.62 µM)
MIC Enterococcus faecalis (GC 2691) [1, 5]: 4 µg/mL (≈ 2.62 µM)
MIC Enterococcus faecalis (GC 3059) [1, 5]: 4 µg/mL (≈ 2.62 µM)
MIC Enterococcus faecalis (GC 4552) [1, 5]: 4 µg/mL (≈ 2.62 µM)
MIC Enterococcus faecalis (GC 4553) [1, 5]: 2 µg/mL (≈ 1.31 µM)
MIC Enterococcus faecalis (GC 4554) [1, 5]: 4 µg/mL (≈ 2.62 µM)
MIC Enterococcus faecalis (GC 6189) [1, 5]: 4 µg/mL (≈ 2.62 µM)
MIC Enterococcus faecium (GC 2243) [1, 5]: 2 µg/mL (≈ 1.31 µM)
MIC Enterococcus faecium (GC 4556) [1, 5]: 4 µg/mL (≈ 2.62 µM)
MIC Enterococcus faecium (GC 4557) [1, 5]: 1 µg/mL (≈ 0.655 µM)
MIC Enterococcus faecalis (GC 2242) ([1]; broth dilution, 18 hours at 35° C.; strain GC 2242): 4 µg/mL (≈ 2.62 µM)
MIC Enterococcus faecalis (GC 2691) ([1]; broth dilution, 18 hours at 35° C.; strain GC 2691): 4 µg/mL (≈ 2.62 µM)
MIC Enterococcus faecalis (GC 3059) ([1]; broth dilution, 18 hours at 35° C.; strain GC 3059): 4 µg/mL (≈ 2.62 µM)
MIC Coagulase Negative Staphylococcus (GC 4547) [2]: 2 µg/mL (≈ 1.31 µM)
MIC Coagulase Negative Staphylococcus (GC 4548) [2]: 1 µg/mL (≈ 0.655 µM)
MIC Coagulase Negative Staphylococcus (GC 4549) [2]: 2 µg/mL (≈ 1.31 µM)
MIC Coagulase Negative Staphylococcus (GC 4551) [2]: 2 µg/mL (≈ 1.31 µM)
MIC Staphylococcus aureus-SMITH (GC 4543) [2]: 2 µg/mL (≈ 1.31 µM)
MIC Staphylococcus aureus (ATCC 29213) [2]: 2 µg/mL (≈ 1.31 µM)
MIC Staphylococcus aureus (GC 1131) [2]: 4 µg/mL (≈ 2.62 µM)
MIC Staphylococcus aureus (GC 3051) [2]: 4 µg/mL (≈ 2.62 µM)
MIC Staphylococcus aureus (GC 3053) [2]: 4 µg/mL (≈ 2.62 µM)
MIC Staphylococcus aureus (GC 4541) [2]: 2 µg/mL (≈ 1.31 µM)
MIC Staphylococcus aureus (GC 4542) [2]: 4 µg/mL (≈ 2.62 µM)
MIC Staphylococcus aureus-SMITH (GC 4543) ([2]; strain GC 4543): 2 µg/mL (≈ 1.31 µM)
MIC Staphylococcus aureus (GC 4544) [2]: 4 µg/mL (≈ 2.62 µM)
MIC Staphylococcus aureus (GC 4545) [2]: 2 µg/mL (≈ 1.31 µM)
MIC Coagulase Negative Staphylococcus (GC 4547) ([2]; strain GC 4547): 2 µg/mL (≈ 1.31 µM)
MIC Coagulase Negative Staphylococcus (GC 4548) ([2]; strain GC 4548): 1 µg/mL (≈ 0.655 µM)
MIC Coagulase Negative Staphylococcus (GC 4549) ([2]; strain GC 4549): 2 µg/mL (≈ 1.31 µM)
MIC Coagulase Negative Staphylococcus (GC 4551) ([2]; strain GC 4551): 2 µg/mL (≈ 1.31 µM)
MIC Streptococcus agalactiae (GC 4564) [3, 5]: 0.25 µg/mL (≈ 0.164 µM)
MIC Streptococcus pneumoniae (ATCC 6301) [3, 5]: 0.5 µg/mL (≈ 0.328 µM)
MIC Streptococcus pneumoniae (GC 1894) [3, 5]: <0.12 µg/mL
MIC Streptococcus pneumoniae (GC 4565) [3, 5]: 0.25 µg/mL (≈ 0.164 µM)
MIC Streptococcus pyogenes (GC 4563) [3, 5]: 0.25 µg/mL (≈ 0.164 µM)
MIC Streptococcus pneumoniae (ATCC 6301) ([3]; broth dilution, 18 hours at 35° C.; strain ATCC 6301): 0.5 µg/mL (≈ 0.328 µM)
MIC Streptococcus pneumoniae (GC 1894) ([3]; broth dilution, 18 hours at 35° C.; strain GC 1894): <0.12 µg/mL
MIC Streptococcus pyogenes (GC 4563) ([3]; broth dilution, 18 hours at 35° C.; strain GC 4563): 0.25 µg/mL (≈ 0.164 µM)
MIC Streptococcus agalactiae (GC 4564) ([3]; broth dilution, 18 hours at 35° C.; strain GC 4564): 0.25 µg/mL (≈ 0.164 µM)
MIC Streptococcus pneumoniae (GC 4565) ([3]; broth dilution, 18 hours at 35° C.; strain GC 4565): 0.25 µg/mL (≈ 0.164 µM)
MIC Escherichia coli (ATCC 25922) [4]: 64 µg/mL (≈ 41.9 µM)
MIC Escherichia coli (GC 4559) [4]: 32 µg/mL (≈ 21 µM)
MIC Escherichia coli (GC 4560) [4]: 2 µg/mL (≈ 1.31 µM)
SMILES: CCCCCCCN1CC(C(O)C2NC(=O)C(C(O)C3CNC(=N)N3)NC(=O)C(Cc3ccc(OC4OC(CO)C(OC5OC6COC7(OC6C(O)C5O)C5CC6CC(C5)CC7C6)C(O)C4O)cc3)NC(=O)C(C(C)c3ccccc3)NC(=O)CNC(=O)C(CO)NC2=O)N(C2OC(CO)C(O)C(O)C2O)C1=N (centres unmarked) [Example 83]
MIC Staphylococcus haemolyticus (GC 4546) [2]: 2 µg/mL (≈ 1.31 µM)
MIC Staphylococcus haemolyticus (GC 4546) ([2]; strain GC 4546): 2 µg/mL (≈ 1.31 µM)

MIC Enterococcus faecalis (ATCC 29212) ([1]; strain ATCC 29212; broth dilution, 18 hours at 35° C.): 8 µg/mL (≈ 7.09 µM)
MIC Enterococcus faecalis (GC 2242) ([1]; strain GC 2242; broth dilution, 18 hours at 35° C.): 4 µg/mL (≈ 3.55 µM)
MIC Enterococcus faecium (GC 2243) ([1]; strain GC 2243; broth dilution, 18 hours at 35° C.): 4 µg/mL (≈ 3.55 µM)
MIC Enterococcus faecalis (GC 2691) ([1]; strain GC 2691; broth dilution, 18 hours at 35° C.): 8 µg/mL (≈ 7.09 µM)
MIC Enterococcus faecalis (GC 3059) ([1]; strain GC 3059; broth dilution, 18 hours at 35° C.): 8 µg/mL (≈ 7.09 µM)
MIC Enterococcus faecalis (GC 4552) ([1]; strain GC 4552; broth dilution, 18 hours at 35° C.): 8 µg/mL (≈ 7.09 µM)
MIC Enterococcus faecalis (GC 4553) ([1]; strain GC 4553; broth dilution, 18 hours at 35° C.): 8 µg/mL (≈ 7.09 µM)
MIC Enterococcus faecalis (GC 4554) ([1]; strain GC 4554; broth dilution, 18 hours at 35° C.): 4 µg/mL (≈ 3.55 µM)
MIC Enterococcus faecium (GC 4556) ([1]; strain GC 4556; broth dilution, 18 hours at 35° C.): 8 µg/mL (≈ 7.09 µM)
MIC Enterococcus faecium (GC 4557) ([1]; strain GC 4557; broth dilution, 18 hours at 35° C.): 2 µg/mL (≈ 1.77 µM)
MIC Enterococcus avium (GC 4558) ([1]; strain GC 4558; broth dilution, 18 hours at 35° C.): 4 µg/mL (≈ 3.55 µM)
MIC Enterococcus faecalis (GC 6189) ([1]; strain GC 6189; broth dilution, 18 hours at 35° C.): 4 µg/mL (≈ 3.55 µM)
MIC Staphylococcus aureus (ATCC 29213) [2]: 4 µg/mL (≈ 3.55 µM)
MIC Staphylococcus aureus (GC 1131) [2]: 2 µg/mL (≈ 1.77 µM)
MIC Staphylococcus aureus (GC 3051) [2]: 2 µg/mL (≈ 1.77 µM)
MIC Staphylococcus aureus (GC 3053) [2]: 4 µg/mL (≈ 3.55 µM)
MIC Staphylococcus aureus (GC 4541) [2]: 2 µg/mL (≈ 1.77 µM)
MIC Staphylococcus aureus (GC 4542) [2]: 2 µg/mL (≈ 1.77 µM)
MIC Staphylococcus aureus-SMITH (GC 4543) ([2]; strain GC 4543): 2 µg/mL (≈ 1.77 µM)
MIC Staphylococcus aureus (GC 4544) [2]: 2 µg/mL (≈ 1.77 µM)
MIC Staphylococcus aureus (GC 4545) [2]: 2 µg/mL (≈ 1.77 µM)
MIC Coagulase Negative Staphylococcus (GC 4547) ([2]; strain GC 4547): 2 µg/mL (≈ 1.77 µM)
MIC Coagulase Negative Staphylococcus (GC 4548) ([2]; strain GC 4548): 1 µg/mL (≈ 0.886 µM)
MIC Coagulase Negative Staphylococcus (GC 4549) ([2]; strain GC 4549): 2 µg/mL (≈ 1.77 µM)
MIC Coagulase Negative Staphylococcus (GC 4551) ([2]; strain GC 4551): 4 µg/mL (≈ 3.55 µM)
MIC Coagulase Negative Staphylococcus (GC 6257) ([2]; strain GC 6257): 2 µg/mL (≈ 1.77 µM)
MIC Streptococcus pneumoniae (ATCC 6301) ([3]; strain ATCC 6301; broth dilution, 18 hours at 35° C.): 16 µg/mL (≈ 14.2 µM)
MIC Streptococcus pneumoniae (GC 1894) ([3]; strain GC 1894; broth dilution, 18 hours at 35° C.): 16 µg/mL (≈ 14.2 µM)
MIC Streptococcus pyogenes (GC 4563) ([3]; strain GC 4563; broth dilution, 18 hours at 35° C.): 8 µg/mL (≈ 7.09 µM)
MIC Streptococcus agalactiae (GC 4564) ([3]; strain GC 4564; broth dilution, 18 hours at 35° C.): 16 µg/mL (≈ 14.2 µM)
MIC Streptococcus pneumoniae (GC 4565) ([3]; strain GC 4565; broth dilution, 18 hours at 35° C.): 16 µg/mL (≈ 14.2 µM)
MIC Escherichia coli (ATCC 25922) ([4]; strain ATCC 25922, broth dilution): 16 µg/mL (≈ 14.2 µM)
MIC Escherichia coli (GC 4559) ([4]; strain GC 4559, broth dilution): 16 µg/mL (≈ 14.2 µM)
MIC Escherichia coli (GC 4560) ([4]; strain GC 4560, broth dilution): 4 µg/mL (≈ 3.55 µM)
SMILES: CC(c1ccccc1)C1NC(=O)CNC(=O)C(CO)NC(=O)C(C(O)C2CNC(=N)N2C2OC(CO)C(O)C(O)C2O)NC(=O)C(C(O)C2CNC(=N)N2)NC(=O)C(Cc2ccc3oc(-c4ccc(C(C)(C)C)cc4)nc3c2)NC1=O (stereo not drawn) [Example 32, Cyclo[3-[2-(4-tert-butylphenyl)-1,3-benzoxazol-5-yl]alanyl-3-(2-iminoimidazolidin-4-yl)seryl-3-(3-hexopyranosyl-2-iminoimidazolidin-4-yl)serylserylglycyl-β-methylphenylalanyl]]
MIC Staphylococcus haemolyticus (GC 4546) ([2]; strain GC 4546): 2 µg/mL (≈ 1.77 µM)
